Laboratory results published in patent US6582714B1, “Article for insert control by passive evaporation of an active ingredient” (priority 1995, dated 2003).

Legend:
[1] = system: A. aegypti mosquitoes; assay: Chamber test, first series (box fan), mosquito repellency and knock-down; type: in vivo; settings: at least 50% repellency within 20 minutes with not more than a gram
Source text: (§1) The chamber test protocol was developed to realistically model actual use conditions for the insect control article of the invention. A closed, generally featureless, approximately 28 m^3, box-like test chamber is used, the size of a small room. Six mosquito knock-down cages are distributed vertically within the test chamber, suspended from poles adjacent to opposite test chamber side walls, where they can be observed from outside the test chamber through chamber windows. Mosquitoes in the cages are observed during a test to evaluate the ability of a material being tested to knock down mosquitoes. An insect “knocked down” is one that is incapable of flying and usually is moribund in appearance. The insect may or may not actually be dead. The knock-down cages are cylindrical, approximately 6 cm long and 8 cm in diameter, and have screened but otherwise open ends.
(§2) Two repellency mosquito cages are also provided. The repellency cages are box-like screened cages, approximately 73 cm long and 16 cm square in cross section. All of the walls of the repellency cages are screened but otherwise generally open. Each repellency cage is divided by a clear plastic partition into a first holding area, which occupies approximately 45 cm of the length of the cage, and a second holding area, which occupies the remaining 28 cm. The plastic partition has a 4 cm diameter hole in its center that provides the only route by which mosquitoes may pass between the two holding areas. The repellency cages are mounted in a test chamber wall, with the plastic partition located in the plane of the test chamber wall, and are so oriented that the first holding area projects inwardly, into the test chamber, while the second holding area projects through the test chamber wall, out into normal room air.
(§3) A mouse cage essentially identical to a mosquito knock-down cage is mounted on the end of the first holding chamber of each repellency test cage that faces toward the interior of the test chamber. The mouse cage is separated from the repellency cage only by a mosquito-proof screen. One mouse is placed in the mouse cage during a test to provide an attractant for mosquitoes being held in the repellency test cage. Mosquitoes in the first holding area of a repellency cage thus are attracted toward the mouse, on the one hand, and repelled by the insect control article being tested, on the other hand.
(§4) When a test is run, fifty female mosquitoes are placed in the first holding area of each mosquito cage, with the partition hole closed by a removable door. Ten female mosquitoes are placed in each knock-down cage. The insect control article to be tested is placed centrally within the test chamber and the air flow is initiated. At timed intervals up to a total testing period of two hours, each knock-down cage and each repellency cage is visually examined, and the location, number, and condition of the mosquitoes are noted. The number of mosquitoes that have been driven to the second holding area provides a measure of the repellency of the insect control article being tested. The number of mosquitoes knocked down in the knock-down cages is also recorded. The general success of an insect control article is judged by both the mosquitoes repelled and those knocked down, in that both effects reduce the total number of mosquitoes available for biting.
Two series of tests were run using the chamber test protocol to evaluate the effect of insect control articles made in accordance with the invention. […]

[2] = system: A. aegypti mosquitoes; assay: Olfactometer test (repellency from target air stream); type: in vivo; settings: for mg to reach RD90: dose at which 90% of control population driven from target, 28 x 10 cm filter paper, female mosquitoes; for WEIGHT INDEX: ratio of weight of ingredient versus weight of DEET to achieve RD90, 25° C.
Source text: The olfactometer test provides a means for measuring the effect of a volatile active ingredient on flying insects under precisely controlled conditions. Mosquitoes are used as the test insect. In this and the other Examples, below, the mosquitoes were A. aegypti. The olfactometer used for the olfactory tests described below generates two uniform, laminar flow air streams. These air streams consist of a target air stream superimposed upon and centered within a carrier air stream.
The olfactometer provides a square testing surface with an area of 929 cm^2. The testing area consists of a circular target area of 42 cm^2 centered on a square background surface area of 887 cm^2. In the tests described, a 200 ml/min flow of carbon dioxide was introduced into the carrier air stream to activate the mosquitoes. […] The flow rate of the carrier air stream was 300 to 350 liters/min. […] Elevated temperature and humidity at the level described for the target air stream are known to be attractive to mosquitoes. The flow rate of the target air stream was 12 liters/min.
The olfactometer has an air flow duct through which the carrier air flow strewn passes. A glass cylinder having one closed and one open end, an internal diameter of 6 cm and a depth of 14 cm is located within the air flow duct, with the longitudinal axis of the glass cylinder oriented parallel to the direction of flow of the carrier air flow stream, with the open end of the cylinder pointing down stream. The target air stream is generated by releasing a flow of temperature and humidity conditioned air into the glass cylinder near its closed end, from which point the air flows the length of the glass cylinder to exit at its open end.
Active insect control ingredients to be tested are impregnated in a filter paper test substrate (Grade 615 from VWR Scientific Inc.) having a length of 28 cm and a width of 10 cm. The filter paper test substrate is folded into a fluted cylinder and inserted coaxially within the glass cylinder to rest at a location between the point where the air is released into the glass cylinder and the open end of the glass cylinder. By this arrangement, the target air stream is caused to pass over the surface of the filter paper test substrate so that any active insect control ingredient present in the filter paper test substrate may evaporate into the target air stream before the target air stream exits the glass cylinder to continue, embedded within the flow of the carrier air stream.
Cubic test cages having 30.5 cm edges were constructed of four glass panels, with two opposing sides of the cubic test cages being open. One open side was designated the test panel and was covered with an airflow-transmitting, mosquito-retaining mesh. The opposite open side was covered with a closeable sleeve made of a tubular, open-weave, mosquito-retaining fabric well known in the art as “stockinet.” For any given test, the test cage normally contained from 250 to 350 female mosquitoes.
The test cage was placed in the air stream with the test panel facing and perpendicular to the direction of flow of the air streams of the olfactometer. In order to allow the mosquitoes to become activated by the carbon dioxide of the air streams, the test cage first was placed in the olfactometer for an initial 5 minute conditioning exposure. The test cage then was removed from the olfactometer for 3 minutes and then placed back in the olfactometer for a second 5 minute conditioning exposure. The test cage was again removed from the olfactometer for 3 minutes, during which time a control filter paper test substrate was inserted within the glass cylinder of the olfactometer. The test cage was then placed on the olfactometer for a 10 minute control exposure. The same procedure was repeated, using each time a filter paper test substrate impregnated with increasing amounts of active insect control ingredient. […]

[3] = system: A. aegypti mosquitoes; assay: Chamber test, second series (small blower, 0.06 m^3 per minute); type: in vivo
Source text: as §1, §2, §3, §4
In an additional series of tests using the chamber protocol, two insect control active ingredients were tested for their ability to achieve the preferred practical control level, defined above. The experiment of the first series was substantially repeated except that the substrate was a 0.5 cm thick, 4.5 cm diameter coil of common corrugated cardboard, with the channels of the corrugation presented endwardly to the direction of air flow. […]

[4] = Volatility index calculation (concentration in air from vapor pressure); type: physicochemical; settings: for CONCENTRATION IN AIR: calculated from vapor pressure by ideal gas equation, 20 to 25° C.; for VOLATILITY INDEX: concentration in the air relative to DEET at 20 to 25° C.
[5] = system: A. aegypti mosquitoes; assay: Activity index calculation (volatility index x weight index); settings: volatility index multiplied by weight index; DEET = 1.00
Protocol: The “activity index” is obtained by the multiplying the volatility index and the weight index. The activity index is an attempt to predict the combined effect of volatility and potency by weight in the usefulness of an insect control active ingredient for insect control of flying insects by passive evaporation. The following activity indices were calculated from the volatility and weight indices given, above: […]

[6] = 0.072 gm applied directly to the nine blades of the small blower, 0.06 m^3 per minute, two hour testing period
[7] = 0.5 cm thick, 4.5 cm diameter corrugated cardboard coil, blower 0.06 m^3 per minute, two hour test, NA = not achieved

SMILES | practical insect control as defined (minimum practical control standard) [1] | mg to reach RD90 [2] | WEIGHT INDEX [2] | KD50 [3, 6] | RD50 [3, 6] | RD90 [3, 6] | Minutes to KD50 [3, 7] | Minutes to RD50 [3, 7] | Minutes to RD90 [3, 7] | CONCENTRATION IN AIR [4] | VOLATILITY INDEX [4] | ACTIVITY INDEX [5]
CC1(C)[C@H](C=C(Cl)Cl)[C@H]1C(=O)OCc1c(F)c(F)cc(F)c1F [Transfluthrin] | achieved | 0.57 milligrams/filter paper test substrate | 0.0059 | never achieved | never achieved | never achieved | 20 min | 30 min | 80 min | 6.09 × 10^−8 grams per liter | 0.0035 | 0.00002
C#CCC1=C(C)C(OC(=O)C2C(C=C(C)C)C2(C)C)CC1=O (stereo not shown) [Prallethrin] | achieved | 5.5 milligrams/filter paper test substrate | 0.058 | – | – | – | – | failed to achieve | – | 5.80 × 10^−7 grams per liter | 0.034 | 0.0020
